Laboratory results as given in paper PMC10545790.
In brackets after ≈: the same amount, converted by molar mass. Several values for one entry are separate records, joined by “and”; a condition that tells them apart may be missing. Identical values can stand only once. Entries after “also recorded” stand apart in the source; their conditions may differ. Like-named read-outs stand apart in the source and are kept apart here.

Assays:
ABL1 kinase = ABL1 kinase (Homo sapiens, UniProt P00519); conditions: for Luminescence, Raw Data (LUM): ADP-Glo
Sequence of ABL1 kinase (P00519 whole entry): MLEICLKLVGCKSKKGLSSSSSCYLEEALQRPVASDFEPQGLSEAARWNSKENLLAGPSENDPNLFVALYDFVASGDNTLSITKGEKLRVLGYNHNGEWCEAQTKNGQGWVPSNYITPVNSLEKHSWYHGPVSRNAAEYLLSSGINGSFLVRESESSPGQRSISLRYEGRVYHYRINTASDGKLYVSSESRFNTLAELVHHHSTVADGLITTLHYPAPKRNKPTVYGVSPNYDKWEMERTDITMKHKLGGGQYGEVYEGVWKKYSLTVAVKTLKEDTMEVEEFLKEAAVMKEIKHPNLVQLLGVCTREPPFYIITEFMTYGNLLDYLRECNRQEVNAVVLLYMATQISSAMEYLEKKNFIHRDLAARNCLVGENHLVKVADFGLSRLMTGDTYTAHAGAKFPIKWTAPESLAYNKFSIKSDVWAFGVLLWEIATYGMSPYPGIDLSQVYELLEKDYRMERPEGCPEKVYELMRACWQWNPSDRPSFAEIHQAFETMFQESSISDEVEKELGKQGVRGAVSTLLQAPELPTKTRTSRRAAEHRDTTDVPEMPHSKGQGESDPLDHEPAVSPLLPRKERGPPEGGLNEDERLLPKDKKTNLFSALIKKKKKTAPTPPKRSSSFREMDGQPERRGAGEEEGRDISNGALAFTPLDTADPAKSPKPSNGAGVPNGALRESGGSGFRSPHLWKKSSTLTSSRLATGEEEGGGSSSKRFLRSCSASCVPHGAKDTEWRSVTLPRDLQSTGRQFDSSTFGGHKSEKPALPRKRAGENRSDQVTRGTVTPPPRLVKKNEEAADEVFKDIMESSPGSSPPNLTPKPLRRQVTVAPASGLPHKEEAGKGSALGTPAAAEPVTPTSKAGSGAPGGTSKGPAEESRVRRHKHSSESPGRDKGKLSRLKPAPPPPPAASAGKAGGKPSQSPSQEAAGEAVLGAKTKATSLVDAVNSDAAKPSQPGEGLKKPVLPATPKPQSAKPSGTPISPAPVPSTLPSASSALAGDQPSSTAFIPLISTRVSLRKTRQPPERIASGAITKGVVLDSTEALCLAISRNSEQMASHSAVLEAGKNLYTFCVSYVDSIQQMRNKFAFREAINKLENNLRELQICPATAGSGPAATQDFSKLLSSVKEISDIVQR

physchem = conditions: pH 7.4, logD (7.4): experimental distribution coefficient in n-octanol/phosphate-buffered saline
[1] = Metabolic stability in human liver microsomes; conditions: both, human, liver microsomes (pooled)
human liver microsomes = assay: Metabolic stability in human liver microsomes; conditions: human liver microsomes
[2] = Kinetic solubility in phosphate-buffered saline, pH 7.4; conditions: 25 °C, pH 7.4, aqueous buffer, kinetic from dmso stock

## Cc1ccc(NC(=O)C23CCC(CN4CCN(C)CC4)(CC2)CC3)cc1Nc1nccc(-c2cccnc2)n1 [Compound 86]
ABL1 kinase; ADP-Glo Kinase Assay, 12 concentration points
  inhibitory effect on the catalytic activity of ABL1 kinase (in words): did not observe any significant inhibitory effect; also recorded: inactive
ABL1 kinase; 1st run, plate ABL1_CpdsTitr_Read1, single wells, compound 15 nM
  Luminescence, Raw Data (LUM): 2281 and 2169
ABL1 kinase; 1st run, plate ABL1_CpdsTitr_Read1, single wells, compound 29 nM
  Luminescence, Raw Data (LUM): 2495 and 2464
ABL1 kinase; 1st run, plate ABL1_CpdsTitr_Read1, single wells, compound 59 nM
  Luminescence, Raw Data (LUM): 2134 and 2384
ABL1 kinase; 1st run, plate ABL1_CpdsTitr_Read1, single wells, compound 117 nM
  Luminescence, Raw Data (LUM): 2291 and 2227
ABL1 kinase; 1st run, plate ABL1_CpdsTitr_Read1, single wells, compound 234 nM
  Luminescence, Raw Data (LUM): 1059 and 1099
ABL1 kinase; 1st run, plate ABL1_CpdsTitr_Read1, single wells, compound 469 nM
  Luminescence, Raw Data (LUM): 1247 and 1531
ABL1 kinase; 1st run, plate ABL1_CpdsTitr_Read1, single wells, compound 938 nM
  Luminescence, Raw Data (LUM): 1347 and 1294
ABL1 kinase; 1st run, plate ABL1_CpdsTitr_Read1, single wells, compound 1500 nM
  Luminescence, Raw Data (LUM): 981 and 1352
ABL1 kinase; 1st run, plate ABL1_CpdsTitr_Read1, single wells, compound 1875 nM
  Luminescence, Raw Data (LUM): 1222 and 1248
ABL1 kinase; 1st run, plate ABL1_CpdsTitr_Read1, single wells, compound 3000 nM
  Luminescence, Raw Data (LUM): 1174 and 1245
ABL1 kinase; 1st run, plate ABL1_CpdsTitr_Read1, single wells, compound 3750 nM
  Luminescence, Raw Data (LUM): 1755 and 1091
ABL1 kinase; 1st run, plate ABL1_CpdsTitr_Read1, single wells, compound 7500 nM
  Luminescence, Raw Data (LUM): 1238 and 1673
ABL1 kinase; 2nd run, plate ABL1_CpdsTitr2_Read1, single wells, compound 15 nM
  Luminescence, Raw Data (LUM): 4011 and 3702 and 3072 and 2792
ABL1 kinase; 2nd run, plate ABL1_CpdsTitr2_Read1, single wells, compound 59 nM
  Luminescence, Raw Data (LUM): 6124 and 5895 and 5335 and 5300
ABL1 kinase; 2nd run, plate ABL1_CpdsTitr2_Read1, single wells, compound 117 nM
  Luminescence, Raw Data (LUM): 6960 and 7005 and 6427 and 6079
ABL1 kinase; 2nd run, plate ABL1_CpdsTitr2_Read1, single wells, compound 234 nM
  Luminescence, Raw Data (LUM): 5660 and 5387 and 5152 and 5142
ABL1 kinase; 2nd run, plate ABL1_CpdsTitr2_Read1, single wells, compound 469 nM
  Luminescence, Raw Data (LUM): 5734 and 5920 and 6125 and 5475
ABL1 kinase; 2nd run, plate ABL1_CpdsTitr2_Read1, single wells, compound 938 nM
  Luminescence, Raw Data (LUM): 6593 and 6264 and 5955 and 5731
ABL1 kinase; 2nd run, plate ABL1_CpdsTitr2_Read1, single wells, compound 1500 nM
  Luminescence, Raw Data (LUM): 5936 and 5810 and 4992 and 5316
ABL1 kinase; 2nd run, plate ABL1_CpdsTitr2_Read1, single wells, compound 1875 nM
  Luminescence, Raw Data (LUM): 6498 and 6064 and 6232 and 5788
ABL1 kinase; 2nd run, plate ABL1_CpdsTitr2_Read1, single wells, compound 3000 nM
  Luminescence, Raw Data (LUM): 4358 and 4452 and 3565 and 4254
ABL1 kinase; 2nd run, plate ABL1_CpdsTitr2_Read1, single wells, compound 3750 nM
  Luminescence, Raw Data (LUM): 5848 and 6030 and 5487 and 5693
ABL1 kinase; 2nd run, plate ABL1_CpdsTitr2_Read1, single wells, compound 7500 nM
  Luminescence, Raw Data (LUM): 5593 and 5845 and 6001 and 5417
physchem
  logD: 2.7
[1]; pH 7.4
  k el at 2 µM: ~0.0001 s⁻¹
  microsomal CLint at 2 µM: 16 µL/min/mg
[1]; pH 7.4, % Remaining without cofactor, Mean of 2, human liver microsomes, NADPH-cofactor system substituted with phosphate buffer
  remaining at 40 min, 2 µM: 106%
[1]; pH 7.4, % Remaining, Mean of 2, human liver microsomes with NADPH, 7 min
  remaining at 7 min, 2 µM: 100%
[1]; pH 7.4, % Remaining, Mean of 2, human liver microsomes with NADPH, 15 min
  remaining at 0.25 h, 2 µM: 96%
[1]; pH 7.4, % Remaining, Mean of 2, human liver microsomes with NADPH, 25 min
  remaining at 25 min, 2 µM: 81%
[1]; pH 7.4, % Remaining, Mean of 2, human liver microsomes with NADPH
  remaining at 40 min, 2 µM: 81%
[1]; pH 7.4, t1/2: half-time of a metabolic decomposition, human liver microsomes, 2 μM compound, NADPH, 37 °C
  half-life at 2 µM: 1.78 h
Human liver microsomes
  CLint: 16
Human liver microsomes; 2 μM compound, NADPH, 37 °C
  t1/2: half-time of a metabolic decomposition: ~1.785 h
[2]
  solubility kinetic at 2 h: 113 µM (≈ 59.4 µg/mL)
